How the values were obtained:
MLN64 [1] = experiment: Western blot of MLN64 protein expression in human fibroblasts; assay type: cell-based; settings: HMβCD 2mM, 16 hours, co-treatment with U18666A; control Npc+/+ fibroblasts
Procedure: (§1) PMH from Npc1^+/+ and human Npc^+/+ control fibroblasts were treated with U18666A (2µg/ml) or HMβCD (2mM) for 16 hours. In some other cases, PMH from Npc1^-/- and Npc^-/- fibroblast from NPC patients were treated with HMβCD as above for control PMH.
Fibroblasts from NPC patients were transfected with cDNA to overexpress ACDase (ASAH1) (SEQ ID NO: 5; MGC Human ASAH1 Sequence-Verified cDNA Accession: BC016481 Clone ID: 3923451) commercially purchased from GE Dharmacon. Transfection was performed using Lipofectamine2000 (Invitrogen). Briefly, 250000 fibroblasts were incubated with the transfection mixtures containing 250ng of the sobrexpression ACDase vector or the scrambled control-GFP vector. Cells were assayed 48 h after transfection for mRNA and protein levels. […]
100mg of liver were homogenized with a pestle homogenizer in 1ml of homobuffer (70mM saccharose, 220mM mannitol, 2mM Tris-HCI pH 7.4, 0,1mM EDTA, 0.1% fatty acid free BSA) supplemented with protease and phosphatase inhibitors (Roche). […] All supernatants were collected and quantified for protein concentration using Quick-Bradford reagent (Bio-Rad) and 20-50µg of protein were subjected to 4-12% SDS-polyacrylamide gel electrophoresis (SDS-PAGE) (Bio-Rad, XT-Criterion). […] Images were digitally captured by LAS4000 (GE Healthcare) and optical density was analyzed with ImageJ software.

Npc+/+ fibroblasts = experiment: Filipin and cytochrome c co-staining, confocal microscopy (mitochondrial cholesterol); assay type: cell-based, human; settings: HMβCD 2mM, 16 hours, co-treatment with U18666A; Npc+/+ fibroblasts from control patients
Procedure: (§2) Fibroblasts from patients with NPC disease used have been previously described (Torres et al., Redox Biol. 2017 Apr;11:60-72). Briefly, cultured human skin fibroblasts from control individuals (HSF; GM5659D) and patients with NPC disease were a generous gift from Thierry Levade, Laboratoire de Biochimie Metabolique, Institut Federatif de Biologie (CHU Toulouse, France) or obtained from Coriell Institute for Medical Research (GM03123, NJ, USA) and were grown at 37°C in 5% CO2. DMEM (Gibco) culture medium was supplemented with 10% fetal bovine serum (FBS, Gibco, 10-270-106) and 10.000U/ml Penicillin-Streptomycin (Gibco, 15140-122).
as §1
(§3) PMH were fixed for 15min with 3.7% paraformaldehyde and permeabilized for 5min with 0.2% saponin dissolved in 0.5% BSA-fatty acid free (FAF) in PBS commercial buffer. Cells were blocked with 1% BSA FAF for 15minutes. […] Percentage of cholesterol mass containing mitochondria was analyzed with the Colocalization nBits nimages plugin (Confocal Microscopy Unit, Facultad de Medicina, Universidad de Barcelona) in the ImageJ Software in 5 consecutive images of each experimental condition.

[2] = test system: Npc-/- fibroblasts from NPC patients; experiment: as above; assay type: cell-based, human; settings: HMβCD 2mM, 16 hours
Procedure: as §2
PMH from Npc1^+/+ and human Npc^+/+ control fibroblasts were treated with U18666A (2µg/ml) or HMβCD (2mM) for 16 hours. In some other cases, PMH from Npc1^-/- and Npc^-/- fibroblast from NPC patients were treated with HMβCD as above for control PMH. […]
as §3, with “buffer.” for “buffer. Cells were blocked with 1% BSA FAF for 15minutes.”

STARD1 [3] = experiment: Western blot of STARD1 protein expression in primary mouse hepatocytes; assay type: cell-based; settings: 16 hours
Procedure: as §1
(§4) 100mg of liver were homogenized with a pestle homogenizer in 1ml of homobuffer (70mM saccharose, 220mM mannitol, 2mM Tris-HCI pH 7.4, 0,1mM EDTA, 0.1% fatty acid free BSA) supplemented with protease and phosphatase inhibitors (Roche). Liver homogenates were diluted 4 times with RIPA lysis buffer (Sigma) with anti-proteases and anti-phosphatases. Cells were washed with PBS and lysed with ice-cold RIPA lysis buffer supplemented with protease and phosphatase inhibitors. Samples were incubated 15min at 4°C, vortexed and spinned down for 5min at 10000rpm. All supernatants were collected and quantified for protein concentration using Quick-Bradford reagent (Bio-Rad) and 20-50µg of protein were subjected to 4-12% SDS-polyacrylamide gel electrophoresis (SDS-PAGE) (Bio-Rad, XT-Criterion). Proteins were electrotransferred at 4°C onto Hybond ECL nitrocellulose membranes (Amersham) and 5% BSA solution in TBS-Tween was used to block the membranes for 1h at room temperature. Membranes were incubated overnight with the following primary antibodies: anti-PDI (Cell Signaling, 24465), anti-CHOP (Cell Signaling, 2895S), anti-Phospho eiF2A (Cell Signaling, 9721S), anti-eiF2A (Cell Signaling, 9722) and anti-STARD1 (Abcam, ab58013), anti-BIP (Stressgen, SPA826), anti-XBP1 (Santa Cruz, CS-8015) and anti-Mln64 (Santa Cruz SC-292868), ACDAse (Sigma, SAB3500293), LRH-1 (Santa Cruz, Cs-393369) and anti-β-Actin HRP-conjugated (Sigma, A3854). Membranes were thoroughly washed with TBS-Tween and incubated for 45min with their respective HRP-conjugated secondary antibodies. Pierce ECL Western Blotting Substrate (Thermo Scientific) was used to develop the membranes. Images were digitally captured by LAS4000 (GE Healthcare) and optical density was analyzed with ImageJ software.

NPC child patients = settings: intravenous instillation 2500 mg/kg per time, 1 to 3 times per week, more than 1 year; cited from earlier work
STARD1 [4] = experiment: Western blot of STARD1 protein expression in human fibroblasts; assay type: cell-based; settings: 16 hours
Procedure: as §1
(§5) Fibroblasts from NPC patients were transfected with cDNA to overexpress ACDase (ASAH1) (SEQ ID NO: 5; MGC Human ASAH1 Sequence-Verified cDNA Accession: BC016481 Clone ID: 3923451) commercially purchased from GE Dharmacon. Transfection was performed using Lipofectamine2000 (Invitrogen). Briefly, 250000 fibroblasts were incubated with the transfection mixtures containing 250ng of the sobrexpression ACDase vector or the scrambled control-GFP vector. Cells were assayed 48 h after transfection for mRNA and protein levels. SEQ ID NO: 5 >ENA|BC016481|BC016481.1 Homo sapiens N-acylsphingosine amidohydrolase (acid ceramidase) 1, mRNA (cDNA clone MGC:9327 IMAGE:3923451), complete cds. [formula] [formula] [formula]
(§6) 100mg of liver were homogenized with a pestle homogenizer in 1ml of homobuffer (70mM saccharose, 220mM mannitol, 2mM Tris-HCI pH 7.4, 0,1mM EDTA, 0.1% fatty acid free BSA) supplemented with protease and phosphatase inhibitors (Roche). Liver homogenates were diluted 4 times with RIPA lysis buffer (Sigma) with anti-proteases and anti-phosphatases. Cells were washed with PBS and lysed with ice-cold RIPA lysis buffer supplemented with protease and phosphatase inhibitors. Samples were incubated 15min at 4°C, vortexed and spinned down for 5min at 10000rpm. All supernatants were collected and quantified for protein concentration using Quick-Bradford reagent (Bio-Rad) and 20-50µg of protein were subjected to 4-12% SDS-polyacrylamide gel electrophoresis (SDS-PAGE) (Bio-Rad, XT-Criterion). Proteins were electrotransferred at 4°C onto Hybond ECL nitrocellulose membranes (Amersham) and 5% BSA solution in TBS-Tween was used to block the membranes for 1h at room temperature. […] Images were digitally captured by LAS4000 (GE Healthcare) and optical density was analyzed with ImageJ software.

PMH from Npc1-/- mice = experiment: Filipin and cytochrome c co-staining, confocal microscopy (mitochondrial cholesterol); assay type: cell-based, mouse; settings: HMβCD 2mM, 16 hours
Procedure: (§7) PMH were isolated by collagenase perfusion at a flow rate of 7-9ml/min and cultured at a density of 2×10^5 cells in 12-well plates coated with rat tail collagen. Hepatocytes were cultured in DMEM/F12 culture media (Gibco, 21331-020) supplemented with 10% FBS for the first 3 hours post isolation, together with 10.000U/ml Penicillin-Streptomycin (Gibco, 15140-122), 200mM L-Glutamine (Gibco, 25030-024), 7.5mM D-Glucose (Sigma, G6152) and 150mM Hepes pH 7.4 (Sigma,). For subsequent treatments, FBS was replaced for 1mM methionine (Sigma, M5308).
as §1
(§8) PMH were fixed for 15min with 3.7% paraformaldehyde and permeabilized for 5min with 0.2% saponin dissolved in 0.5% BSA-fatty acid free (FAF) in PBS commercial buffer. Cells were blocked with 1% BSA FAF for 15minutes. Cytochrome c (Cytc) (BD Pharmigen, #556432) and Lamp2 (Abcam, #ab13524) primary antibodies were incubated overnight in BSA 1% followed by a secondary antibody for 1 hour at room temperature in BSA 0.1%. Filipin ([…], Sigma) was added during the secondary antibody incubation and the following steps were performed in the dark. Stained samples were embedded in fluoromont (Sigma) and digital images were taken in a Leica SP2 laser scanning confocal microscope equipped with UV excitation, an argon laser, a 633/1.32 OIL PH3 CS objective and a confocal pinhole set at 1 Airy unit. All the confocal images shown were single optical sections. Scale bar represents 25 µm. Percentage of cholesterol mass containing mitochondria was analyzed with the Colocalization nBits nimages plugin (Confocal Microscopy Unit, Facultad de Medicina, Universidad de Barcelona) in the ImageJ Software in 5 consecutive images of each experimental condition.

PMH from Npc1+/+ mice [5] = experiment: as above; assay type: cell-based, mouse; settings: 16 hours
Procedure: as §7, §1, §8

[6] = test system: Npc1 gene-defective (Npc1-/-) mice; settings: cited from earlier work
ACDase [7] = experiment: Western blot of ACDase protein expression in primary mouse hepatocytes; assay type: cell-based; settings: 16 hours
Procedure: as §1, §4

MLN64 [8] = experiment: Western blot of MLN64 protein expression in primary mouse hepatocytes; assay type: cell-based; settings: HMβCD 2mM, 16 hours, co-treatment with U18666A; PMH from Npc1+/+ mice
Procedure: as §1, §6

ACDase [9] = experiment: Western blot of ACDase protein expression in human fibroblasts; assay type: cell-based; settings: 16 hours
Procedure: as §1, §5, §6

ER stress markers = experiment: Western blot of ER stress markers in primary mouse hepatocytes; assay type: cell-based; settings: incubation of Npc1+/+ PMH with U18666A
Procedure: as §1, §6

PMH from Npc1+/+ mice [10] = experiment: Filipin and Lamp2 co-staining, confocal microscopy (lysosomal cholesterol); assay type: cell-based, mouse; settings: U18666A 2µg/ml, 16 hours
Procedure: as §7, §1, §3

patients = settings: NPC patients; cited from earlier work
[11] = test system: ER stress markers (BIP, PDI and CHOP); experiment: Western blot of ER stress markers in human fibroblasts; assay type: cell-based; settings: control Npc+/+ fibroblasts
Procedure: as §6

[12] = HMβCD 2mM, co-treatment with U18666A, PMH from Npc1+/+ mice
[13] = HMβCD 2mM, PMH from Npc1-/- mice, no U18666A
[14] = HMβCD 2mM, co-treatment with U18666A, control Npc+/+ fibroblasts
[15] = HMβCD 2mM, Npc-/- fibroblasts from NPC patients, no U18666A
[16] = U18666A 2µg/ml, PMH from Npc1+/+ mice

## CC(O)COC[C@H]1O[C@@H]2O[C@H]3[C@H](O)[C@@H](O)[C@@H](O[C@H]4[C@H](O)[C@@H](O)[C@@H](O[C@H]5[C@H](O)[C@@H](O)[C@@H](O[C@H]6[C@H](O)[C@@H](O)[C@@H](O[C@H]7[C@H](O)[C@@H](O)[C@@H](O[C@H]8[C@H](O)[C@@H](O)[C@@H](O[C@H]1[C@H](O)[C@H]2O)O[C@@H]8COCC(C)O)O[C@@H]7COCC(C)O)O[C@@H]6COCC(C)O)O[C@@H]5COCC(C)O)O[C@@H]4COCC(C)O)O[C@@H]3COCC(C)O (stereo partly drawn) [HMβCD, 2-hydroxypropyl-β-cyclodextrin]
MLN64 [1]
  increased expression of MLN64 induced by U18666A: prevented the increased expression of MLN64
Npc+/+ fibroblasts
  U18666A-induced cholesterol accumulation and trafficking to mitochondria: prevented U18666A-induced cholesterol accumulation and trafficking to mitochondria
[2]
  mitochondrial cholesterol increase: exhibited the same changes induced by HMβCD
STARD1 [3]; [12]
  increase of STARD1 induced by U18666A: reverse the increase of STARD1
STARD1 [3]; [13]
  expression levels of STARD1: exhibited the same changes induced by HMβCD
NPC child patients
  nervous symptom: saw no improvement
  side effects: severe side effects have been observed
  splenomegaly and brain wave: certain effect of reduction of splenomegaly and improvement in a brain wave
STARD1 [4]; [14]
  increase of STARD1 induced by U18666A: reverse the increase of STARD1
STARD1 [4]; [15]
  expression levels of STARD1: exhibited the same changes induced by HMβCD
PMH from Npc1-/- mice
  mitochondrial cholesterol increase: exhibited the same changes induced by HMβCD
PMH from Npc1+/+ mice [5]; [12]
  U18666A-induced cholesterol accumulation and trafficking to mitochondria: prevented U18666A-induced cholesterol accumulation and trafficking to mitochondria
[6]; directly administered into the brain, Npc1-/- mice
  improving effect, direct administration into the brain compared with systemic administration: increased a few hundred times
[6]; intravenously administered, Npc1-/- mice
  medical state or survival: effective in improving the medical state or prolonging survival
[6]; mouse, in vivo
  crossing of the blood brain barrier: inability of HPBCD to cross the blood brain barrier
ACDase [7]; [12]
  repression of ACDase induced by U18666A: reverse the increase of STARD1 and the repression of ACDase
ACDase [7]; [13]
  expression levels of ACDase: exhibited the same changes induced by HMβCD
MLN64 [8]
  increased expression of MLN64 induced by U18666A: prevented the increased expression of MLN64
ACDase [9]; [14]
  repression of ACDase induced by U18666A: reverse the increase of STARD1 and the repression of ACDase
ACDase [9]; [15]
  expression levels of ACDase: exhibited the same changes induced by HMβCD

## CCN(CC)CCO[C@H]1CC[C@@]2(C)C(=CC[C@@H]3[C@@H]2CC[C@]2(C)C(=O)CC[C@@H]32)C1 [U18666A]
STARD1 [3]; [16]
  STARD1 expression: significantly increased STARD1
STARD1 [4]; U18666A 2µg/ml, Npc+/+ fibroblasts
  STARD1 expression: significantly increased STARD1
ER stress markers
  ER stress markers: failed to induce ER stress markers
PMH from Npc1+/+ mice [5]; U18666A 2µg/ml, Npc1+/+ PMH
  accumulation of cholesterol in mitochondria (colocalization of filipin and CytC staining): stimulated the accumulation of cholesterol in mitochondria
PMH from Npc1+/+ mice [10]
  lysosomal cholesterol accumulation (filipin and Lamp2 staining): significantly increased lysosomal cholesterol accumulation
ACDase [7]; [16]
  expression of ACDase: decreased the expression of ACDase
ACDase [9]; U18666A 2µg/ml, control Npc+/+ fibroblasts
  expression of ACDase: decreased the expression of ACDase

## CCCCN1C[C@H](O)[C@@H](O)[C@H](O)[C@H]1CO [miglustat]
patients
  life span of patients: extends the life span of patients

## tunicamycin
[11]
  markers of ER stress (BIP, PDI and CHOP): induced markers of ER stress
